Results: ChEMBL document CHEMBL2396582, “Large conductance Ca(2+)-activated K(+) channel (BKCa) activating properties of a series of novel N-arylbenzamides: Channel subunit dependent effects” (Bioorg Med Chem, 2013)
Activity calls are given as the source filed them. The rule behind the calls is not given here.

Key:
Assay type in all cases: cell-based
[1] = target: Calcium-activated potassium channel subunit alpha-1 (Homo sapiens) (UniProt Q12791); assay: Activation of human BKCA alpha channel expressed in HEK293 cells assessed as increase of rubidium efflux after 10 mins relative to control
Sequence of Calcium-activated potassium channel subunit alpha-1 (Homo sapiens) (Q12791 whole entry): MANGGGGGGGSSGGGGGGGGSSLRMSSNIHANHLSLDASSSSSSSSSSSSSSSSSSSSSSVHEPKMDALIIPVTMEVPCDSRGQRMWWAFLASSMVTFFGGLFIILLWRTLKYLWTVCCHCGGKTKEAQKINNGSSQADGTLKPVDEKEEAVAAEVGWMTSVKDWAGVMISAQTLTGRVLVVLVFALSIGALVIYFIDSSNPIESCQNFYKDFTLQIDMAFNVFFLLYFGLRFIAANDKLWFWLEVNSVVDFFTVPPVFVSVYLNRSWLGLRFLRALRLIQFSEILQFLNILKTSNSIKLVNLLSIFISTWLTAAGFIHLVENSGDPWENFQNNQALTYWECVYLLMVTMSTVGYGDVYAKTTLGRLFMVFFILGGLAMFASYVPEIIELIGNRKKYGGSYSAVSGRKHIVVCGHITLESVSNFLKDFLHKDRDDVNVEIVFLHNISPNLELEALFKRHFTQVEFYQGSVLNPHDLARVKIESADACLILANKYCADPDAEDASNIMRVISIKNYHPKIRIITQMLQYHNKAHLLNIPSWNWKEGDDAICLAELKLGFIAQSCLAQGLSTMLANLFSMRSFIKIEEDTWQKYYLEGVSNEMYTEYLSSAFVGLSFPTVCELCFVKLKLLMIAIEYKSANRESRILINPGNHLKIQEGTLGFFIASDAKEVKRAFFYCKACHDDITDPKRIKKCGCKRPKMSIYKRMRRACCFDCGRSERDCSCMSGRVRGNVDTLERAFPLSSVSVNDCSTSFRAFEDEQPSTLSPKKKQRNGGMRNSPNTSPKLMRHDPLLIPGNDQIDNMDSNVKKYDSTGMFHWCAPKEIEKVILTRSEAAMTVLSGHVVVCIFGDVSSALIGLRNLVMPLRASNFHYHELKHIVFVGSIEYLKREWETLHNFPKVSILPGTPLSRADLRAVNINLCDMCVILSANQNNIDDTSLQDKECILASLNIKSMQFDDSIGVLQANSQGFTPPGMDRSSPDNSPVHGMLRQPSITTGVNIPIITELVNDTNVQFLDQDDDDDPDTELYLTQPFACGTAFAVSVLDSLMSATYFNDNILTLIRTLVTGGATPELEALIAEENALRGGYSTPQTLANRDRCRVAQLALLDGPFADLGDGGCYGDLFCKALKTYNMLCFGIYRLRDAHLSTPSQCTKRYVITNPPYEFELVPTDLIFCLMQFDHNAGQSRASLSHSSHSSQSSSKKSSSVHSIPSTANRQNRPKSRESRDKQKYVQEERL

[2] = target: Calcium-activated potassium channel subunit alpha-1 (Homo sapiens) (UniProt Q12791); assay: Activation of human BKCA alpha channel expressed in HEK293 cells assessed as increase of rubidium efflux at 100 uM after 10 mins in presence of iberiotoxin
[3] = target: T1, Calcium-activated potassium channel alpha/beta 1 (Homo sapiens) (UniProt Q12791+Q16558); assay: Activation of human BKCA alpha/beta1 channel expressed in HEK293 cells assessed as increase of rubidium efflux after 10 mins in presence paxilline
[4] = target: T1, Calcium-activated potassium channel alpha/beta 1 (Homo sapiens); assay: Activation of human BKCA alpha/beta1 channel expressed in HEK293 cells assessed as increase of rubidium efflux after 10 mins relative to control
[5] = target: T1, Calcium-activated potassium channel alpha/beta 1 (Homo sapiens); assay: Activation of human BKCA alpha/beta1 channel expressed in HEK293 cells assessed as increase of rubidium efflux after 10 mins
[6] = target: T1, Calcium-activated potassium channel alpha/beta 1 (Homo sapiens); assay: Activation of human BKCA alpha/beta1 channel expressed in HEK293 cells assessed as increase of rubidium efflux after 10 mins in presence iberiotoxin
[7] = target: Calcium-activated potassium channel subunit alpha-1 (Homo sapiens) (UniProt Q12791); assay: Activation of human BKCA alpha channel expressed in HEK293 cells assessed as increase of rubidium efflux at 100 uM after 10 mins in presence of paxilline
[8] = target: Calcium-activated potassium channel subunit alpha-1 (Homo sapiens) (UniProt Q12791); assay: Activation of human BKCA alpha channel expressed in HEK293 cells assessed as increase of rubidium efflux after 10 mins
[9] = target: Calcium-activated potassium channel subunit alpha-1 (Homo sapiens) (UniProt Q12791); assay: Activation of human BKCA alpha channel expressed in HEK293 cells assessed as increase in intracellular calcium level at 10 uM after 30 mins
[10] = target: Calcium-activated potassium channel subunit alpha-1 (Homo sapiens) (UniProt Q12791); assay: Activation of human BKCA alpha channel expressed in HEK293 cells assessed as increase in intracellular calcium level at 50 uM after 30 mins
[11] = target: Calcium-activated potassium channel subunit alpha-1 (Homo sapiens) (UniProt Q12791); assay: Activation of human BKCA alpha channel expressed in HEK293 cells assessed as increase in intracellular calcium level at 100 uM after 30 mins
[12] = target: Calcium-activated potassium channel subunit alpha-1 (Homo sapiens) (UniProt Q12791); assay: Activation of human BKCA alpha channel expressed in HEK293 cells assessed as increase in intracellular calcium level at 0.1 uM after 30 mins

SMILES	Emax [1] [%]	Activity [2]	Activity [3]	Emax [4] [%]	EC40 [5] [nM]	Activity [6]	Activity [7]	EC40 [8] [nM]	Activity [9] [%]	Activity [10] [%]	Activity [11] [%]	Activity [12] [%]
Cc1ccccc1C(=O)Nc1cc(Cl)ccc1O	59.7	inactive	inactive	56.8	3630	inactive	inactive	2950	–	–	–	–
CNc1ccc2oc(C[C@H]3O[C@@]4(CC[C@H]3C)O[C@H]([C@H](C)C(=O)c3ccc[nH]3)[C@H](C)C[C@H]4C)nc2c1C(=O)O	–	–	–	–	–	–	–	–	416	–	–	–
O=C(Nc1cc(Cl)ccc1O)c1ccccc1	62.5	inactive	inactive	32.9	–	inactive	inactive	1410	–	–	–	–
COc1ccc(Cl)cc1C(=O)Nc1ccccn1	49.1	inactive	inactive	42	46800	inactive	inactive	4470	–	–	–	–
C=C[C@@]1(C)CC(=O)[C@]2(O)[C@@]3(C)[C@@H](O)CCC(C)(C)[C@@H]3[C@H](O)[C@H](OC(C)=O)[C@@]2(C)O1	–	–	–	–	–	–	–	–	–	22.3	–	–
O=c1[nH]c2cc(C(F)(F)F)ccc2n1-c1cc(C(F)(F)F)ccc1O	61.7	inactive	inactive	76.6	790	inactive	inactive	350	–	–	5.3	–
CCOc1ccccc1C(=O)Nc1cc(Cl)ccc1O	69.9	inactive	inactive	99.5	120	inactive	inactive	210	–	–	6.2	–
CC(C)[C@@]1(O)[C@@H](OC(=O)c2cc[nH]c2)[C@@]2(O)[C@]3(C)C[C@@]4(O)O[C@@]5([C@H](O)[C@@H](C)CC[C@]35O)[C@@]2(O)[C@@]41C	–	–	–	–	–	–	–	–	–	–	–	38.1
COc1ccc(Cl)cc1C(=O)Nc1cccnc1	72.5	inactive	inactive	68.8	3470	inactive	inactive	310	–	–	–	–
Cc1ccc(NC(=O)c2ccccc2O)c([N+](=O)[O-])c1	86.4	inactive	inactive	54.4	1410	inactive	inactive	560	–	–	–	–
COc1ccc(Cl)cc1C(=O)Nc1ccncc1	99.2	inactive	inactive	65.1	4160	inactive	inactive	1120	–	–	–	–
